Results published in ChEMBL document CHEMBL5154882, “Discovery of 4-Hydroxyquinazoline Derivatives as Small Molecular BET/PARP1 Inhibitors That Induce Defective Homologous Recombination and Lead to Synthetic Lethality for Triple-Negative Breast Cancer Therapy” (J Med Chem, 2022).

Tests used:
[1] = Toxicity in BALB/c nude mouse xenografted with human MDA-MB-468 cells assessed as morphological changes in liver at 80 mg/kg, ig administered daily for 16 days measured every 3 days by hematoxyin-eosin staining based analysis; type: organism-based; conditions: in vivo, po, 384 h, time 16 day
[2] = system: MDA-MB-468; assay: Cell cycle arrest in human MDA-MB-468 cells assessed as accumulation at G2/M phase at 5 uM incubated for 72 hrs by propidium iodide staining-based flow cytometry analysis (reference value: 16.1%); type: functional
[3] = Toxicity in BALB/c nude mouse xenografted with human MDA-MB-468 cells assessed as change in body weight at 80 mg/kg, ig administered daily for 16 days measured every 3 days; type: organism-based; conditions: in vivo, po, 384 h, time 16 day

COc1cc(OC)c2c(=O)[nH]c(-c3cccc(Cc4n[nH]c(=O)c5ccccc45)c3)nc2c1
Activity [1]: Non-Toxic
Activity [2]: 16.6%
Activity [3]: Non-Toxic
